This passage reports Ki results from BindingDB's records for doi:10.1021/jm00352a016 (1983).

Each structure is given as a SMILES string.

The assay deals with Adenylate kinase 2 (Rattus norvegicus) (UniProt P29410). In words: Inhibitory activity against rat adenylate kinase II (AK-II) isoenzyme was determined in the presence of ATP, non competitive inhibition.

One may read the Ki as the dissociation constant of the complex between target and ligand, obtained from inhibition or displacement. Consider `Nc1ncnc2c1ncn2[C@@H]1O[C@H](CO)[C@@H](O)[C@H]1O` [[U-14C]adenosine], for which the Ki is 87 mM.
